Data set [1] deals with PSMA+ LNCaP cells. In words: Cell binding and internalization in LNCaP cells. The format is cell-based, human. Here is the method: (§1) Internalization experiments were performed as previously described. Briefly, 10^5 LNCaP or PC-3 cells were seeded in poly-L-lysine-coated 24-well cell culture plates 24 h before incubation. After washing with PBS, the cells were incubated with the radiolabeled compounds ^68Ga]6 or ^68Ga]7 (25 nM final concentration) for 45 min at 37°C and at 4°C, respectively. To determine specific cellular uptake, cells were blocked with 2-(phosphonomethyl)-pentanedioic acid (PMPA, Axxora, Loerrach, Germany) to a final concentration of 100 μM. Cellular uptake was terminated by washing four times with 1 mL of ice-cold PBS. To remove surface-bound radioactivity, cells were incubated twice with 0.5 mL glycine-HCl in PBS (50 mM, pH = 2.8) for 5 min. The cells were washed with 1 mL of ice-cold PBS and lysed using 0.3 N NaOH (0.5 mL). The surface-bound and the internalized fractions were measured in a gamma counter.

Data set [2] has as its system PSMA− PC-3 cells. In words: Cell binding and internalization in PC-3 cells. Type of data set: cell-based, human. The note with it: 25 nM, 45 min. How it is done: as §1
For data set [3], the system named is LNCaP cells. In words: Cell surface retention (efflux). The format is cell-based, human. The note with it: 2-PMPA added to avoid rebinding, compared to monomer. Here is the method:
The determination of cell surface retention was performed in accordance to a previously described experiment. Briefly, 5 × 10^6 LNCaP cells in a 320-μL RPMI 1640 medium were incubated with ^68Ga]6 or ^68Ga]7 (25 nM final concentration), respectively, for 45 min at 37°C. Cells were washed three times and resuspended in the RPMI 1640 medium (320 μL); samples were taken as a control for total cell-associated activity (cell surface bound and internalized). Subsequently, 0.5 μL of a 2-PMPA solution (100 mmol/L in DMSO) was added to avoid rebinding and to enhance the competitive pressure on releasing the radioactivity from the cell surface. At indicated time points, 10-μL samples were taken and transferred on top of a 400-μL microcentrifuge tube containing 350 μL of a 75:25 mixture of silicon oil (density 1.05; Aldrich), and mineral oil (density 0.872; Acros, Thermo Fisher Scientific). Subsequently, the tubes were centrifuged at 12,000 rpm for 2 min to separate cellular radioactivity and radioactivity solved in the medium. After freezing in liquid nitrogen, the bottom tips containing the cell pellet were cut off. The cell pellets and the medium were measured in a gamma counter to determine cellular uptake
(1) %uptake=100×cpminpellet/cpminpellet+cpminsupernatant

Data set [4] deals with LNCaP tumor xenografts. In words: Biodistribution in mice bearing LNCaP tumor xenografts. The note with it: 1 h post-injection. Type of data set: in vivo, BALB/c nu/nu mice. How it is done:
(§2) Male BALB/c nu/nu mice of 7 to 8 weeks old (Charles River Laboratories, Wilmington, MA, USA) were subcutaneously inoculated into the right trunk with 5 × 10^6 cells of either LNCaP or PC-3 (both in 50% Matrigel; Becton Dickinson, Heidelberg, Germany). The tumors were allowed to grow for 3 to 4 weeks until approximately 1 cm^3 in size. The ^68Ga-radiolabeled compounds were injected into a tail vein (1 to 2 MBq/mouse; 0.1 to 0.2 nmol). At 1 h after injection, the animals were sacrificed. Organs of interest were dissected, blotted dry, and weighed. The radioactivity was measured using a gamma counter and calculated as percentage injected dose per gram (% ID/g).

In data set [5] the test system is PSMA− PC-3 tumor. In words: Biodistribution in PC-3 tumor-bearing mice. The format is in vivo, BALB/c nu/nu mice. The note with it: 1 h post-injection; PSMA− PC-3 tumor-bearing mice. Here is the method: as §2, with “At 1 h after injection, the animals were sacrificed.” left out
Data set [6] in a line: Radiochemical stability in human serum and PBS. The format is in vitro ADME. The note with it: 2 h incubation at 37°C. Here is the method: (§3) The radiochemical stability was analyzed in both phosphate-buffered saline (PBS) and human serum. After 2 h of incubation at 37°C, an equal volume of CH3CN was added to the samples to precipitate serum proteins. Subsequently, the samples were centrifuged for 5 min at 13,000 rpm. Aliquots of the supernatant and the PBS sample were analyzed via RP-HPLC. In addition, serum samples were run on a Superdex 75 GL 5/150 gel filtration column (GE Healthcare, Munich, Germany) to analyze potential protein binding (PBS pH 7 as eluent).

Data set [7] deals with apo-transferrin (Homo sapiens, UniProt P02787). In words: Complex stability against human transferrin / protein binding (size exclusion chromatography). Type of data set: in vitro ADME. The note with it: after incubation in human serum or in the presence of apo-transferrin; 2 h, 37°C. How it is done:
as §3, with “eluent). To analyze the complex stability against human transferrin, a 400-μL aliquot was added to 250 μg of apo-transferrin in PBS at pH 7 and incubated at 37°C (water bath) for 2 h. The complex stability was determined using a Superdex 75 GL 5/150 short column with PBS pH 7 as eluent.” for “eluent).”
(Size exclusion chromatography separates by hydrodynamic size, large species first.)

The test system of data set [8] is LNCaP tumor xenograft. In words: Dynamic microPET in mice bearing LNCaP tumor xenografts. The format is in vivo. The note with it: L-isomer versus D-isomer. Here is the method:
For the microPET studies, 10 to 25 MBq of either [^68Ga]6 or [^68Ga]7 in a volume of 0.15 mL (approximately 0.5 nmol) was injected via a lateral tail vein into mice bearing LNCaP tumor xenografts. The anesthetized animals (2% sevoflurane, Abbott, Wiesbaden, Germany) were placed in prone position into an Inveon small animal PET scanner (Siemens, Knoxville, TN, USA) to perform a 50-min dynamic microPET scan starting at 1 min post-injection followed by a 20-min static scan. All animal experiments complied with the current laws of the Federal Republic of Germany.

The mark [9] stands for this setting: i.v. tail vein, 0.1 to 0.2 nmol.

Sequence of apo-transferrin (P02787 20-698): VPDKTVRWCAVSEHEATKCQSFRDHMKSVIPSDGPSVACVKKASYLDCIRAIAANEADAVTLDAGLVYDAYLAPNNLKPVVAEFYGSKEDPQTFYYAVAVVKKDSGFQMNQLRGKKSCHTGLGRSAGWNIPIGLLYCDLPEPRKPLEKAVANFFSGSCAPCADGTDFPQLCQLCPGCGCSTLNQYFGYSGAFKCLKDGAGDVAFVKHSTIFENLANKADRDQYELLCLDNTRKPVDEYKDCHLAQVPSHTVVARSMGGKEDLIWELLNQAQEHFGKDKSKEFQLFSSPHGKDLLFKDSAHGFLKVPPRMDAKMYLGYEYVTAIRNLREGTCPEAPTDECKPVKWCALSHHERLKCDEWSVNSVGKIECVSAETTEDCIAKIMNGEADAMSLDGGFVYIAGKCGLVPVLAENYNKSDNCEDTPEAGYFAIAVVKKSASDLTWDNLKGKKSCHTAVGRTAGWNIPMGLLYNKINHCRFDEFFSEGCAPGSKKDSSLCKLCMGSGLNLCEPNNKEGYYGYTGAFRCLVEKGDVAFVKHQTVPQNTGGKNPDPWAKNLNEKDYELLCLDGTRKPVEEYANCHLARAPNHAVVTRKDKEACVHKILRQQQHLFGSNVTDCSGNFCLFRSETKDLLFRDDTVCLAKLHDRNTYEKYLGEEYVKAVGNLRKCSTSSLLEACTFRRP

Take `O=C(O)CC[C@H](NC(=O)N[C@@H](CCCCNC(=O)CCCCCNC(=O)CCc1ccc(O)c(CN(CCN(CC(=O)O)Cc2cc(CCC(=O)NCCCCCC(=O)NCCCC[C@H](NC(=O)N[C@@H](CCC(=O)O)C(=O)O)C(=O)O)ccc2O)CC(=O)O)c1)C(=O)O)C(=O)O` [[^68Ga]7, metal not drawn]: the Internalized fraction entry in data set [1] (25 nM, 45 min) is given as “approximately 25%”. In data set [1] (25 nM, 45 min, percentage of applied radioactivity bound to 10^6 cells), the Cellular uptake is listed as 40.04 ± 6.09%. Moreover, the “Uptake in the presence of 2-PMPA” value in data set [1] (100 μM 2-PMPA) is “blocked”. Moreover, the “Binding to PSMA− PC-3 cells” value in data set [2] is on record as “no binding”. Further, the “Cell surface retention (efflux experiment)” value in data set [3] was “prolonged cell surface retention”. Moreover, in data set [4] (LNCaP tumor), the “Enhanced tumor uptake of dimer versus monomer (factor)” value is listed as “approximately 1.7” and the “Tumor-to-blood ratio (T/B)” value came to 26.5. Further, in data set [4] (blocked with 2 mg/kg 2-PMPA), the “Kidney uptake after co-injection of PMPA” value stood at 8.29 ± 0.83 % ID/g and the “Spleen uptake after blocking” value was 0.67 ± 0.11 % ID/g. In data set [4] (setting [9]), the “Organ distribution, Blood” value is recorded as 0.31 ± 0.03 % ID/g; the “Organ distribution, Brain” value is 0.17 ± 0.01 % ID/g; the “Organ distribution, Heart” value was found to be 0.90 ± 0.12 % ID/g; the “Organ distribution, Intestine” value was 0.57 ± 0.14 % ID/g. For the same molecule, in data set [4] (setting [9]), the “Organ distribution, Kidney” value came to 133.43 ± 18.88 % ID/g; the “Organ distribution, Liver” value amounted to 1.29 ± 0.11 % ID/g; the “Organ distribution, Lung” value is listed as 2.25 ± 0.24 % ID/g; the “Organ distribution, Muscle” value was 0.90 ± 0.01 % ID/g. In data set [4] (setting [9]), the “Organ distribution, Spleen” value is given as 17.88 ± 4.53 % ID/g. Also, in data set [4] (n = 5), the “Organ distribution, LNCaP tumor” value is on record as 8.22 ± 1.78 % ID/g. The “Organ distribution, PC-3 tumor” value in data set [5] was 0.93 ± 0.53 % ID/g. In data set [6], the “Intact compound by HPLC analysis” value came out at 99%. In addition, in data set [7], the “Changes in size exclusion chromatography” value was “no changes in size exclusion chromatography were detected”. Also, in data set [8], the “Tumor time-activity behaviour in dynamic PET” value is given as “accumulation in the tumor”.

Values taken from paper PMC3502552, “A dimerized urea-based inhibitor of the prostate-specific membrane antigen for ^68Ga-PET imaging of prostate cancer” (EJNMMI Research, 2012).
